Data reported in patent US20260297083A1, “SUBSTITUTED ACETYLENE COMPOUND DERIVATIVES AND THEIR PHARMACEUTICAL USE” (AVELOS THERAPEUTICS INC., priority 2023, published 2026).
pIC50: −log10 of the molar value.

target: T1, Polθ polymerase domain (amino acids 1792-2590) (Homo sapiens, UniProt O75417); test: Picogreen assay of Polθ polymerase activity; assay type: biochemical; conditions: 12-point concentration response, 90 minutes incubation at room temperature, 8 nM Polθ in 2×polymerase mixture, read-out: PolQ IC50
T1 construct: 10×Histidine-SUMO (N, cleaved yes); made in house; host or cells: E. coli
T1 sequence (O75417 1792-2590): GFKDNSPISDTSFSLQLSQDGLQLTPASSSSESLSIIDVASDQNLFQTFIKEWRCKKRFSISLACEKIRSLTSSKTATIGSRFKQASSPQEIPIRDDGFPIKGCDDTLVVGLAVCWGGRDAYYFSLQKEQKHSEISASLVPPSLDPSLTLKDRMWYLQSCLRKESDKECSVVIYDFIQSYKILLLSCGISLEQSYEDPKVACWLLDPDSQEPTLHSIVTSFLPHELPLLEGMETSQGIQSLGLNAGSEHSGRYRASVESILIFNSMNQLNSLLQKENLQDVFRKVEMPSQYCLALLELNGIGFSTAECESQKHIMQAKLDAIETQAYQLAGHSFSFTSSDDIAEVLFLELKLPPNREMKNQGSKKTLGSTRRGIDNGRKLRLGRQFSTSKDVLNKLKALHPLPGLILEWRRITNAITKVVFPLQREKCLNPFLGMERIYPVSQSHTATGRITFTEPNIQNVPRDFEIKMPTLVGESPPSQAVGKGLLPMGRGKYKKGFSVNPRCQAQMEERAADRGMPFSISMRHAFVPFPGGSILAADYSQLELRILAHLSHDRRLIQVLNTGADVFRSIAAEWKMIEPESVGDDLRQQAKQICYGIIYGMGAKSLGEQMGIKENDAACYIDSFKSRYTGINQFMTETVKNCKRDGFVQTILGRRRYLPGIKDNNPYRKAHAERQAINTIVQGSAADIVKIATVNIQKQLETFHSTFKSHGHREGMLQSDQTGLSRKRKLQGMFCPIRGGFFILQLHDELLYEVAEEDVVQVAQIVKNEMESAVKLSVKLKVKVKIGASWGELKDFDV
From the text: The DNA sequence of the polQ gene (Genebank ID #NM 199420.4) was chemically synthesized. The DNA sequence encoding the polymerase domain (amino acids 1792-2590) was subcloned into an E. coli expression plasmid, resulting in the fusion of 10×Histidine-SUMO tag at the N terminus of the polymerase domain.
The protein was expressed in E. coli. and purified using a 2-step IMAC (immobilized metal chelate affinity chromatography) procedure. Briefly stated, the overexpressed E. coli lysate was subjected to Ni-NTA purification, and an N-terminal tag was digested by a SUMO protease. Then, the excised fragment of 10×Histidine-SUMO tag was removed using Ni-NTA beads. The resulting protein was used for the Picogreen assay, as described below.
The methods of DNA complex preparation were slightly modified from the protocol previously reported (Zatreanu et al., 2021, Nature Communications, 12:3636). Briefly stated, polθ substrate was prepared by mixing Oligo1 (5′-GCG GCT GTC ATA AG-3′) and Oligo2 (5′-GCTACATTGACAATGGCATCAAATCTCAGATTGCGTCTTATGACAGCCGCG-3′) in an annealing buffer (20 mM Tris-Cl, pH 7.5, 50 mM NaCl) to the final concentration of 22 uM and 20 uM, respectively. The Polθ product was prepared by mixing Oligo3 (5′-CGCGGCTGTCATAAGACGCAATCTGAGATTTGATGCCATTGTCAATGTAGC-3′) and Oligo2 (5′-GCTACATTGACAATGGCATCAAATCTCAGATTGCGTCTTATGACAGCCGCG-3′) to the final concentration of 20 uM. The polθ product was used for the top signal control in the Picogreen assay. Both substrate and product were heated to 95° C. […] and cooled slowly to room temperature.
To evaluate the ability of test compounds to inhibit the activity of polθ in vitro, a Picogreen assay was performed to measure polθ IC50 (nM).
The reactions were performed at room temperature in an assay buffer (25 mM Tris-HCl, pH 7.5, 12.5 mM NaCl, 0.5 mM MgCl2, 5% (v/v) glycerol, 0.01% (v/v) Triton X-100, 0.01% (w/v) Bovine serum albumin, 1 mM DTT). Thirty microliters of 2×polymerase mixture (8 nM Polθ enzyme in an assay buffer) were distributed to 96 well plates, test compounds were prepared by dilution in 100% DMSO to obtain the correct dose range for a 12-point concentration response and 1 μl was dispensed into each well, and then 30 microliters of 2×substrate mix (100 nM DNA and 40 uM dNTPs in an assay buffer) was added. After 90 minutes of incubation, the reaction was stopped and DNA was stained by adding 40 microliters of Picogreen solution (1:80 dilution of Picogreen, Invitrogen, Cat #P7581, 25 mM Tris-HCl, pH 7.5, 10 mM EDTA, pH 7.5).
The fluorescence intensity was measured at excitation/emission=485 nm/520 nm using an Ensight plate reader (Perkin Elmer). The data was analyzed by GraphPad Prism software (Version 8.4.3) to calculate IC50.

pIC50	SMILES
< 7.00	Cc1cc(C(F)(F)F)cc(N2[C@H](C(=O)N(CC#Cc3cnc(N4C[C@H](C)N(C(C)C)[C@@H](C)C4)cn3)c3ccc(F)c(C)c3)CCS2(=O)=O)n1 (stereo in doubt) [compound 54]
7.30 to 9.00	Cc1cc(C(F)(F)F)cc(N2C(=O)CC[C@H]2C(=O)N(CC#CCN2CCN(c3ncccn3)CC2)c2ccc(F)c(C)c2F)n1 [compound 16]
7.30 to 9.00	Cc1cc(C(F)(F)F)cc(N2[C@H](C(=O)N(CC#Cc3cnc(N)cn3)c3ccc(F)c(C)c3F)CCS2(=O)=O)n1 [compound 17]
7.30 to 9.00	Cc1cc(C(F)(F)F)cc(N2[C@H](C(=O)N(CC#Cc3ccc(N)nn3)c3ccc(F)c(C)c3)CCS2(=O)=O)n1 [compound 18]
7.30 to 9.00	Cc1cc(C(F)(F)F)cc(N2[C@H](C(=O)N(CC#Cc3ccc(NC(C)C)nn3)c3ccc(F)c(C)c3)CCS2(=O)=O)n1 [compound 20]
7.30 to 9.00	Cc1cc(C(F)(F)F)cc(N2[C@H](C(=O)N(CC#Cc3ccc(NC(C)C)nn3)c3ccc(F)c(C)c3F)CCS2(=O)=O)n1 [compound 21]
7.30 to 9.00	CC(=O)Nc1ccc(C#CCN(C(=O)[C@@H]2CCS(=O)(=O)N2c2cc(C(F)(F)F)cc(C)n2)c2ccc(F)c(C)c2)nn1 [compound 22]
7.30 to 9.00	Cc1cc(C(F)(F)F)cc(N2[C@H](C(=O)N(CC#Cc3ccc(N4CCOCC4)nn3)c3ccc(F)c(C)c3)CCS2(=O)=O)n1 [compound 23]
7.30 to 9.00	CCN1CCN(c2ccc(C#CCN(C(=O)[C@@H]3CCS(=O)(=O)N3c3cc(C(F)(F)F)cc(C)n3)c3ccc(F)c(C)c3)nn2)CC1 [compound 24]

More lines, now with the values behind:

SMILES	pIC50
Cc1cccc(N(CC#Cc2ccc(N)nn2)C(=O)[C@@H]2CCC(=O)N2c2cc(C(F)(F)F)cc(C)n2)c1 [compound 1]	7.30 to 9.00
Cc1cc(C(F)(F)F)cc(N2C(=O)CC[C@H]2C(=O)N(CC#Cc2ccc(N)nn2)c2ccc(F)c(C)c2F)n1 [compound 2]	7.30 to 9.00
Cc1cc(C(F)(F)F)cc(N2C(=O)CC[C@H]2C(=O)N(CC#Cc2ccc(N)nn2)c2ccc(F)c(Cl)c2)n1 [compound 3]	7.30 to 9.00
Cc1cc(C(F)(F)F)cc(N2C(=O)CC[C@H]2C(=O)N(CC#Cc2ccc(N)nn2)c2ccc(F)c(Cl)c2F)n1 [compound 4]	7.30 to 9.00
Cc1cc(C(F)(F)F)cc(N2C(=O)CC[C@H]2C(=O)N(CC#Cc2ccc(N)nn2)c2ccc(F)c(C)c2)n1 [compound 5]	7.30 to 9.00
Cc1cc(C(F)(F)F)cc(N2C(=O)CC[C@H]2C(=O)N(CC#Cc2cnc(N)cn2)c2ccc(F)c(C)c2)n1 [compound 6]	7.30 to 9.00
Cc1cc(C(F)(F)F)cc(N2C(=O)CC[C@H]2C(=O)N(CC#Cc2cccc(=O)[nH]2)c2ccc(F)c(C)c2)n1 [compound 7]	7.30 to 9.00
Cc1cc(C(F)(F)F)cc(N2C(=O)CC[C@H]2C(=O)N(CC#Cc2ccc(F)cn2)c2ccc(F)c(C)c2)n1 [compound 8]	7.30 to 9.00
Cc1cc(C(F)(F)F)cc(N2C(=O)CC[C@H]2C(=O)N(CC#Cc2cncn2C)c2ccc(F)c(C)c2)n1 [compound 9]	7.30 to 9.00
Cc1cc(C(F)(F)F)cc(N2C(=O)CC[C@H]2C(=O)N(CC#Cc2cnc(N3CCOCC3)cn2)c2ccc(F)c(C)c2)n1 [compound 10]	7.30 to 9.00
CCN1CCN(c2cnc(C#CCN(C(=O)[C@@H]3CCC(=O)N3c3cc(C(F)(F)F)cc(C)n3)c3ccc(F)c(C)c3)cn2)CC1 [compound 11]	7.30 to 9.00
Cc1cc(C(F)(F)F)cc(N2C(=O)CC[C@H]2C(=O)N(CC#Cc2ccc(C(N)=O)nc2)c2ccc(F)c(C)c2)n1 [compound 12]	< 7.00
CCN1CCN(CC#CCN(C(=O)[C@@H]2CCC(=O)N2c2cc(C(F)(F)F)cc(C)n2)c2ccc(F)c(C)c2F)CC1 [compound 13]	7.30 to 9.00
Cc1cc(C(F)(F)F)cc(N2C(=O)CC[C@H]2C(=O)N(CC#CCN2CCOCC2)c2ccc(F)c(C)c2F)n1 [compound 14]	7.30 to 9.00
Cc1cc(C(F)(F)F)cc(N2C(=O)CC[C@H]2C(=O)N(CC#CCN2CCN(c3cnccn3)CC2)c2ccc(F)c(C)c2F)n1 [compound 15]	7.30 to 9.00
